Measurements published in patent US20240293441A1, “NEW THERAPEUTIC USE OF TYPE 2 IODOTHYRONINE DEIODINASE (D2) INHIBITORS” (MATERIAS S.R.I, priority 2021, published 2024).

Key:
[1] = test system: mice with full-thickness skin wounds; test: Skin wound healing in rT3-treated mice; format: in vivo, mouse
Procedure: The back fur of mice was shaved and the skin was cleaned with 70% alcohol. The dorsal skin was pulled using forceps and two 8-mm full-thickness skin wounds were created along the midline using a sterile 8 mm circular biopsy punch by pressing through both layers of the skin pull. Skin wound healing was measured every 2-3 days by anesthetizing the animals and imaging the wounded area.
Excisional, full-thickness skin wounds were aseptically made on the dorsal skin by picking up a fold skin at the midline and using a sterile, disposable biopsy punch with a diameter of 8 mm to punch through the two layers of skin. In this manner, two wounds were made on each side of the midline at the same time. Each wound site was digitally photographed using the Nikon FX-35A at the indicated time intervals, and wound areas were determined on photographs using CellF*. Changes in wound areas were expressed as the percentage of the initial wound areas.
(§1) In vivo: mice (C56BL6 mice) were treated systemically with an i.v. injection of 100 μl of 30 ng/μl rT3 (Sigma Aldrich) or PBS vehicle control to consecutive 4 days.
In a similar setting, the present inventors also tested whether D2 inhibition positively affected wound regeneration in skin.

[2] = test system: mice with CTX-injured tibialis anterior (TA) muscle; test: Muscle regeneration after cardiotoxin (CTX) injury in rT3-treated mice; format: in vivo, mouse
Procedure: Animals were anesthetized by a ketaminexylazine cocktail, and 12,5 μl of 60 μg/ml CTX (Naja mossambica mossambica, Sigma-Aldrich) was injected into and along the length of the right tibialis anterior (TA) (Yan, 2003 J Biol Chem 278(10): 8826-8836) and 25 μl into gastrocnemius muscle. CTX was injected on different day from Tam.
The tibialis anterior (TA) muscles were dissected and fixed in isopentane in liquid nitrogen, and sliced into 7 μm sections. The cross-sectional area was analyzed and quantified using CellF*Olympus Imaging Software.
Dissected muscles were snap frozen in liquid nitrogen-cooled isopentane, sectioned (7 μm thick) and stained. For immunofluorescent staining, cells or section were fixed with 4% formaldehyde (PFA) and permeabilized in 0.1% Triton X-100, then blocked with 0.5% goat serum and incubated with primary antibody. Alexa Fluor™ 594/647-conjugated secondary antibody was used. Images were acquired with an IX51 Olympus microscope and the Cell*F software. For hematoxylin/eosin staining (H&E), sections were fixed for 15 min and placed in hematoxylin for 5 min followed washed, and 5 min in Eosin.
as §1
To therapeutically exploit the capacity of D2-depletion to activate stem cells and accelerate muscle tissue repair, mice were treated with oral reverse triiodothyronine (rT3, a specific D2-inhibitor) for 7 days (−5/+2 relative to CTX injury) (FIG. 7A).

pp6 cells = test: TNFα-induced cell death (PARP immunoblot) in muscle cells with or without rT3; format: cell-based, mouse; settings: TNFα 24 h; rT3 30 nM
Procedure: Primary muscle cultures (pp6) were isolated as described (Qu et al., 1998 J Cell Biol 142(5): 1257-1267) from the indicated mouse lines. Immortalized myoblasts (C2C12) were obtained from ATCC. Proliferating cells were cultured in 20% Fetal Bovine Serum Dulbecco's modified Eagle's medium at 37° C. with penicillin/streptomycin. Transient transfections were performed using Lipofectamine 2000 (Life Technologies) according to the manufacturer's instructions. Anti-MyoD (sc-304) and tubulin (sc-8035) antibodies were purchased from Santa Cruz Biotechnology. Anti-Pax7 antibody were from Developmental Studies Hybridoma Bank. Anti-PARP was from Cell Signaling Technology.
Total protein extracts from cells and tissues were run on a 10% sodium dodecyl sulfate-polyacrylamide gel electrophoresis gel and transferred to an Immobilon-P transfer membrane (Millipore, Billerica, MA). The membrane was then blocked with 5% nonfat dry milk in phosphate buffered saline, probed with the primary antibody, washed and incubated with horseradish peroxidase-conjugated donkey anti-rabbit or mouse immunoglobulin G secondary antibody (1:3000), and detected by chemiluminescence (Millipore). After extensive washing, the membrane was incubated with antitubulin-specific or ERK antibody (1:10,000; sc-8035, Santa Cruz, Dallas, TX) as loading control.
In vitro: Pp6 or C2C12 cells were treated with rT3 (30 nM) […]

DysE17 flies = test: Climbing assay (negative geotaxis) in dystrophic Drosophila fed amiodarone; format: in vivo, Drosophila melanogaster
Description: The genetic loss-of-function homozygous Drosophila mutant for dystrophin (dys), DysE17 (hiips://flybase.org/reports/FBal0241311.html) was employed as a Duchenne muscular dystrophy model, which carries a point mutation on chromosome 3 (location: 92A10, 3R:19,590,458 . . . 19,590,458) causing a nucleotide change C19590458T and consequently the amino acid change Q2807term|Dys-PA. This is a termination codon determining full-length dys protein to be abnormally shortened. As control, the wild-type Oregon-R strain was used.
The adult wild-type animals and mutant fruit flies were treated with amiodarone at increasing concentrations, supplemented in the food for 30 days.
Eclosed Oregon-R and homozygous DysE17 Drosophila (1-2 days of adult age) were placed in vials (10-15 animals/vials) and reared on 4-5 ml of either the standard medium or medium supplemented with amiodarone at increasing doses (100 nM, 1 μM, 10 μM, 20 μM, and 50 μM). Food was replaced each 5 days. Amiodarone-supplemented diets were freshly prepared by mixing amiodarone with appropriate amounts of standard food just before the administration to animals. At least 3 vials per group were prepared within each experiment. Each experiment was repeated 3 or more times: in total, a minimum of 60 animals per experimental condition was analysed.
• Oregon-R receiving vehicle (DMSO 1:1000); • DysE17 flies receiving vehicle (DMSO 1:1000); • DysE17 flies receiving 100 nM amiodarone; • DysE17 flies receiving 1 μM amiodarone; • DysE17 flies receiving 10 μM amiodarone; • DysE17 flies receiving 20 μM amiodarone; • DysE17 flies receiving 50 μM amiodarone.
Flies were treated for 30 days (treatments ended when animals reached 30 days of adult age), with food renewal each 5 days.
Geotaxis was assessed using a climbing assay (negative geotaxis reflex in opposition to the Earth's gravity). A horizontal line was drawn 15 cm above the bottom of the vial. After a 10 minutes rest period, the flies were tapped to the bottom of the vials: all flies were forced to start climbing (vertical walking). The number of flies that climbed up to the 15 cm mark after 60 seconds was recorded as the percentage success rate. A camera recorded fly movement during the experiment. Each trial was performed three times, at one-minute intervals, and the results averaged. Climbing performance was assessed each 5 days starting from day 1-2 of adult age (just after eclosion) and ending at 30 days.
For the validation study, the climbing efficiency and muscle structure of adult wild-type animals and DysE17 mutants were analyzed after food supplementation with amiodarone at increasing concentrations for 0-30 days (geotaxis assay).

C26-injected mice = test: C26 tumor-induced cancer cachexia mouse model with oral amiodarone; format: in vivo
Procedure: Murine colon 26 adenocarcinoma cells (C26) were cultured in DMEM containing 10% fetal bovine serum, 100 U/ml penicillin, and 100 μg/ml streptomycin. For in vivo inoculation, a single suspension of 7×10^6 cells in 100 μl of physiological saline was injected subcutaneously into the right flank of the BALB/c mice. The same volume of physiological saline was injected into the control groups.
In cachexia+/−Amiodarone experiments, mice were treated for 18 days with Amiodarone and were sacrificed 7 days post induced-cachexia. Amiodarone was given from […] (day 1 is the day of cells injection).
(§2) Mice (C57BL6 mice) were treated with 0.45 mg/ml Amiodarone (Sigma, A8423, St. Louis, MO, USA) (Bagchiet al., Circulation Research 1987; 60:621-625; Lee et al., Oncotarget, 2015; 6(40): 42976-42987) in drinking water ad libitum starting 1 week before the induced-denervation or cachexia, until sacrifice.
(§3) Preparation of amiodarone: 45 mg dissolved in 1 ml of water for 10 minutes at 80° C.
In tumor-induced cachexia mice models, mice were treated with oral amiodarone for 18 days (−7/+11 relative to C26 injection) (FIG. 10A). Matched group of amiodarone-treated and control mice were injected with C26 cells, and muscle wasting was monitored to different days following injection.

denervated mice = test: Denervation (sciatic nerve transection) muscle wasting mouse model with oral amiodarone; format: in vivo
Procedure: Animals were anesthetized by a ketaminexylazine cocktail and a small incision ([…]) was made in the left tight skin. The sciatic nerve was exposed with the help of a small surgical hook and then cut before the separation of sciatic nerve branches. A small (2-5 mm) nerve section was removed to prevent re-innervation. Denervation was performed unilaterally, using the contralateral hindlimb as a negative control. Tissues were collected 2, 6, 12 or 15 days after denervation surgery.
In denervation+/−Amiodarone experiments, mice were treated for 13 days with Amiodarone and were sacrificed 5 days post induced-denervation (from day −7 up day+5 upon denervation).
as §2, §3
In denervation mice models, mice were treated with oral amiodarone for 13 days (from day −7 up day+5 upon denervation).

[3] = 7 days post-CTX, oral rT3 for 7 days (−5/+2 relative to CTX injury), vs control
[4] = TA muscle, 11 days after C26 cells injection, vs control
[5] = gastrocnemius, oral amiodarone 13 days (day −7 to +5 upon denervation), vs control

N[C@@H](Cc1ccc(Oc2cc(I)c(O)c(I)c2)c(I)c1)C(=O)O [Reverse triiodothyronine (rT3), 3,3′5′-triiodothyronine]
regrowth of hair in the shaved area ([1]; later time points following skin wounding (28 days post-injury)): more complete regrowth of hair | wound repair ([1]; rT3-treated mice vs control): more rapidly and efficiently than control | fiber size (cross-sectional area) [2, 3]: smaller than control | number of fibers (H&E) [2, 3]: increased number of fibers | fiber size (cross-sectional area) ([2]; 21 days after injury, rT3 for 7 days, vs control): larger fibers | Pax7+/EdU+ cells ([2]; TA sections, rT3 treated mice vs control): increased than control | TNFα-induced apoptosis (pp6 cells): protected from apoptosis

CCCCc1oc2ccccc2c1C(=O)c1cc(I)c(OCCN(CC)CC)c(I)c1 [Amiodarone (AMIO), Amiodarone]
functional deficits vs untreated Dys animals (DysE17 flies; after 25-30 days of treatment): the same functional deficits | damaged animals (climbing decay) (DysE17 flies; amiodarone 10 μM for 15 days, untreated Dys 35%): 18% | damaged animals (climbing decay) (DysE17 flies; amiodarone 10 μM for 20 days, untreated Dys 55%): 32% | most effective concentration on fly mobility (DysE17 flies; doses 100 nM to 50 μM in food, 30 days): 10 µM | muscle structure of functionally recovered muscles (DysE17 flies; dystrophic mutant flies, chronic amiodarone): still compromised at structural level | effect on climbing decay of dystrophic animals (DysE17 flies; higher concentrations, 20-50 μM): did not alter the climbing decay | effect on fly mobility (DysE17 flies; increasing doses from 100 nM to 10 μM): dose-dependent beneficial effect | effect on mobility at shorter times (DysE17 flies; treatment shorter than 15 days (10 days)): no effects | Atrogin-1 mRNA expression (C26-injected mice; [4]): potently down-regulated | MuRF-1 mRNA expression (C26-injected mice; [4]): potently down-regulated | survival (C26-injected mice; after C26 cells injection, control mice about 12.7 days): > 27 days | tumor weight (C26-injected mice; amiodarone-treated vs control mice, 11 days after C26 cells injection): no significant effects | muscle wasting (body, heart, TA and GC weight) (C26-injected mice; oral amiodarone for 18 days (−7/+11 relative to C26 injection), vs control): preserved from massive muscle wasting | muscle wasting (gastrocnemius muscle mass) (denervated mice; after denervation, oral amiodarone 13 days): preserved from massive muscle wasting | Atrogin-1 mRNA expression (denervated mice; [5]): potently down-regulated | MuRF-1 mRNA expression (denervated mice; [5]): potently down-regulated
